According to publication PMC3443622 (2012):

Assays:
ABCG2 [1] = target: T1, ABCG2 (Homo sapiens, UniProt Q9UNQ0); format: cell-based
T1 sequence (Q9UNQ0 1-655): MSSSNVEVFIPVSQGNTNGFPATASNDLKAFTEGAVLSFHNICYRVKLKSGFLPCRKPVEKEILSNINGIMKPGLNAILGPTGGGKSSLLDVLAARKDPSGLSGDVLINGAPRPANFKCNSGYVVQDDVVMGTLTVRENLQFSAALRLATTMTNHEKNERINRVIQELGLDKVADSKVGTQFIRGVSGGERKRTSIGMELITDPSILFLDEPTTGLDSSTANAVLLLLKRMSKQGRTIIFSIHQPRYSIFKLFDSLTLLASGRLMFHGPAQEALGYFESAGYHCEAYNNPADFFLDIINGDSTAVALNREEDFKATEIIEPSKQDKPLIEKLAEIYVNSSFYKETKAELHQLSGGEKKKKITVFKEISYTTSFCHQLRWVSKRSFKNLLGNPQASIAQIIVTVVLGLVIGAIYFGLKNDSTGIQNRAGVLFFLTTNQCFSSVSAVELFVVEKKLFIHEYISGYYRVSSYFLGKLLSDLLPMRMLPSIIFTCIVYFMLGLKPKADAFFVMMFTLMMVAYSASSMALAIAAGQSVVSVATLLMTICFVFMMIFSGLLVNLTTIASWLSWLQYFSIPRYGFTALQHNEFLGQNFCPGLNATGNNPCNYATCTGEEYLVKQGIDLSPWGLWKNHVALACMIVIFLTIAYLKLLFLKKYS

ABCG2 [2] = target: T1, ABCG2; test: intracellular accumulation in ABCG2-transfected HEK293 cells; format: cell-based

Row | Compound | ATP-dependent uptake into membrane vesicles (ABCG2 [1]) | intracellular accumulation in ABCG2-transfected HEK293 cells (ABCG2 [2])
1 | CN(Cc1cnc2nc(N)nc(N)c2n1)c1ccc(C(=O)N[C@@H](CCC(=O)O)C(=O)O)cc1 [[3H]-methotrexate] | using membrane vesicles to determine the rate of ATP-dependent uptake of [^3H]-methotrexate, another substrate of ABCG2 | –
2 | O=C1c2c(O)ccc(O)c2C(=O)c2c(NCCNCCO)ccc(NCCNCCO)c21 [[3H]-mitoxantrone] | – | the intracellular levels of [^3H]-mitoxantrone, a known substrate of ABCG2 was measured in the presence or absence of VKJP1 or VKJP3
